Results: US20130266526A1, “DIHYDROXYFUMARIC ACID DERIVATIVES AND THE USE THEREOF FOR SKIN LIGHTENING” (MERCK PATENT GMBH, priority 2010, published 2013)
Entries after “also recorded” stand apart in the source; their conditions may differ.

Legend:
[1] = tested on: B16V mouse melanoma cells; assay: B16 V mouse melanoma cell test (melanin content after alpha-MSH stimulation); assay type: cell-based; details: for Relative melanin content in %: DMSO control = 100, alpha-MSH 10^-8 M, absorption 405 nm
Protocol: B16V mouse melanoma cells (manufacturer: DSMZ; Article No.: ACC370) are transferred into RPMI medium (Invitrogen, Article No.: 31870), to which 10% of FBS (foetal bovine serum; Invitrogen, Article No.: 10499044), 2 mM L-glutamine (Invitrogen, Article No: 25030) and 1 mM sodium pyruvate (Invitrogen, Article No.: 11360) had additionally been added, and incubated at 37° C. and 5% CO2 for 72 h. The medium is separated off, and the cells are washed once with 10 ml of DPBS (Dulbecco's phosphate-buffered salines; Invitrogen, Article No.: 14190), and the medium is subsequently removed by suction. 1 ml of HyQtase cell detachment solution (Hyclone, Article No.: SV30030.01) is added to the cells. The bottle is swirled a number of times, and the HyQtase cell detachment solution is subsequently removed by suction. The cells are then incubated in the incubator at 37° C. and 5% CO2 for 5 min. The cells are taken up in the modified RPMI medium (see above), and the cell count is determined. To this end, the cells are stained with Trypan Blue and counted in a Neubauer counting chamber. The cells are subsequently sown out again in the modified RPMI medium (see above) in a defined cell count of 80,000 cells per well (6-well clear plate, TCT, PS (Nunc)).
The cells are incubated at 37° C. and 5% CO2 for 24 h, the medium is then removed. 1980 μl of the dilution of the respective substance to be tested are subsequently added. For this substance dilution, the substance is dissolved in DMSO and subsequently filtered through a sterile filter (0.2 μm, Millipore, Article No. SLLG013SL). The solution is then diluted with the modified RPMI medium (see above, but in this case the FBS content is only 5%) in such a way that the final concentration of the substance dilution has the desired final concentration as shown in Table 1.
20 μl of an alpha-MSH solution (alpha-melanocyte-stimulating hormone, DMSO, Sigma, Article No.: D2650) are then added, so that the alpha-MSH concentration in the well is 10^−8 M. The plate is subsequently incubated again at 37° C. and 5% CO2 for 24 h. The process described in this section is repeated a further twice in total.
After the final incubation period, the medium is removed by suction, and the cells are washed with 1000 μl of DPBS (Invitrogen, Article No.: 14190). The medium is again removed by suction. […] of HyQtase cell detachment solution (Hyclone, Article No.: SV30030.01) are added to the cells. The 6-well plate is swirled a number of times, and the HyQtase cell detachment solution is subsequently removed by suction. The cells are then incubated in the incubator at 37° C. and 5% CO2 for 5 min. The cells are taken up in 1.5 ml of DPBS (Invitrogen, Article No.: 14190) and transferred into a cup (SARSTEDT, Ref. 72.692.005). The cell count is subsequently determined. To this end, the cells are stained with Trypan Blue and counted in a Neubauer counting chamber. The cells centrifuged for 1 min at 3500 g. The pellets obtained are photographed, and the supernatant is subsequently removed by suction. The pellets are dissolved in 1 ml of 1N NaOH at 80° C. for 1 h and then cooled to RT. Four times 200 μl per cup (as quadruple determination) are subsequently pipetted into a 96-well plate (VWR, Article No.: 4100636981), and the absorption at a wavelength of 405 nm is determined (Safire, Tecan). The content of melanin can be determined in this way by means of a calibration line.

melanin = details: substance alone; Example 5 of WO 01/66105 A1; cited from earlier work

Compound: O=C(O)CO [Glycolic acid]
- Relative melanin content in % ([1]; 0.5 mM): 67.3%

Compound: O=c1cc(CO)occ1O [Kojic acid]
- Relative melanin content in % ([1]; 1 mM): 59%

Compound: O=C1O[C@H]([C@@H](O)CO)C(O)=C1O [Ascorbic acid]
- Relative melanin content in % ([1]; 3 mM): 77.4%

Compound: CC(O)C(=O)O (stereo not shown) [Lactic acid]
- Relative melanin content in % ([1]; 11.1 mM): 57.8%
- melanin-reducing action (melanin): 40%

Compound: O.O.O=C(O)/C(O)=C(\O)C(=O)O [Dihydroxyfumaric acid dihydrate]
- Relative melanin content in % ([1]; 0.5 mM): 13.4%
- skin-lightening action in comparison with known active compounds ([1]; comparison of the working example (Table 1), dihydrate): exceeds the action of lactic acid, glycolic acid and even kojic acid by a multiple; also recorded: higher compared with the hydroxy acids lactic acid and glycolic acid
